Assay results taken from patent US12421218B2, “Substituted pyrazine-carboxamide derivatives” (Boehringer Ingelheim International GmbH, priority 2022, dated 2025).
pIC50: −log10 of the molar value.

Target: human metabotropic Glutamate 4 receptor (mGluR4) (Homo sapiens (Human), UniProt Q14833)
Test: Assay A: In vitro testing of mGluR4 potency (cAMP HTRF, glutamate/forskolin stimulated)
Assay type: cell-based
Conditions: HEK293 cells overexpressing human mGluR4; 10 uM L-glutamic acid, 1 uM forskolin
Protocol: A. In Vitro Testing of mGluR4 Potency
The in vitro activity of the compounds according to the invention may be investigated as follows:
The HEK293 cell overexpressing the human metabotropic Glutamate 4 receptor are thawed at 37° C. and immediately diluted with cell culture medium. After centrifugation, the cell pellet is re-suspended in medium and then distributed from a stirred spinner flask into the wells of the assay plate. The plates are incubated for one hour at room temperature before they are incubated for 24 hours at 37° C./5% CO2. After washing the cells in the plate three times with 80 uL HBSS/HEPES buffer (10 uL buffer remained in the wells after washing), 5 uL per well of compounds diluted in HBSS/HEPES buffer containing 0.2% BSA (final concentration: 0.1%) and 1 mM IBMX (final concentration: 0.5 mM) are added to the wells of the assay plate. Thereafter 5 uL per well of L-Glutamic acid (final concentration: 10 uM), forskolin (final concentration: 1 uM) and 1 mM IBMX (final concentration: 0.5 mM) dissolved in HBSS/HEPES buffer containing 0.2% BSA (final concentration: 0.1%) are added to the assay plate (final DMSO concentration: 1%). […] The emission at 615 nm and 665 nm (Excitation wavelength: 320 nm) are measured on the EnVision™ reader (PerkinElmer). The ratio between the emission at 665 nm and 615 is calculated by the reader. […]

human metabotropic Glutamate 4 receptor (mGluR4), sequence (Q14833 33-912): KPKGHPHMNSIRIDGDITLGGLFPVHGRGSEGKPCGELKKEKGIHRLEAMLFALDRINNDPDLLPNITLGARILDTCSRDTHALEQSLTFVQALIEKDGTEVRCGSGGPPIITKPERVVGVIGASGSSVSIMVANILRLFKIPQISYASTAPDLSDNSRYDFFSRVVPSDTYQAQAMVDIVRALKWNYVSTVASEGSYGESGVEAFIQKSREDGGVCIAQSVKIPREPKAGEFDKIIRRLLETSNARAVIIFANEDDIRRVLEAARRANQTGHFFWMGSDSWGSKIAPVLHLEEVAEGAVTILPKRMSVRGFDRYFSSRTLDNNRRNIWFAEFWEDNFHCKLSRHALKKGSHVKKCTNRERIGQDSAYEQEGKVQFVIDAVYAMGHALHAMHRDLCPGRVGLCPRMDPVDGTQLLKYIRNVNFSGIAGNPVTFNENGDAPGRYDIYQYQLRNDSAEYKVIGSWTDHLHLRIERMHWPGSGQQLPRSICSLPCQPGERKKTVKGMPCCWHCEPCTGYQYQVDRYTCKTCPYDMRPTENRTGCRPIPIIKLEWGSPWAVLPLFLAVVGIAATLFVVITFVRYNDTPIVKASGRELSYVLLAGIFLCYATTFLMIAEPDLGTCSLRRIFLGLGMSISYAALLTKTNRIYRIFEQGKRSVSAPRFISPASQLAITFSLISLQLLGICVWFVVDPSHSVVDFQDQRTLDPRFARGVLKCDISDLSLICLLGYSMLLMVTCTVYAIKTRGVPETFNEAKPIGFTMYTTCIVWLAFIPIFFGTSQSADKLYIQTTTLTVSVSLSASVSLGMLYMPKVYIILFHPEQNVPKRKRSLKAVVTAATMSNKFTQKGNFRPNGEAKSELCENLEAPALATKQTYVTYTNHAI

pIC50: 8.40
Structure (SMILES): CCn1c([C@@H](NC(=O)c2cnc(C(F)F)cn2)C(C)C)nc2cc(F)ccc21 [Example 59, 5-(difluoromethyl)-N-[(1S)-1-(1-ethyl-5-fluoro-1H-1,3-benzodiazol-2-yl)-2-methylpropyl]pyrazine-2-carboxamide]
